Assay results taken from DBAASP.
≈ marks a conversion by molar mass, not a printed value. Where “and” joins values, the source holds several entries; their conditions need not be identical. Equal values may be shown once. Blank lines part the entries; values can stand above or below the molecule they belong to.

Tests used:
Test in all cases: ≥ marks a high value that may be exact or a test limit, other limits are often not marked, values filed in µg/mL are converted to µM
Escherichia coli = tested on: Escherichia coli
Listeria innocua = tested on: Listeria innocua
Micrococcus luteus A270 = tested on: Micrococcus luteus A270
Micrococcus luteus = tested on: Micrococcus luteus
[1] = tested on: Salmonella enterica subsp. enterica serovar Enteritidis
Staphylococcus aureus = tested on: Staphylococcus aureus
Bacillus subtilis 168 HT = tested on: Bacillus subtilis 168 HT
Escherichia coli MG1655 = tested on: Escherichia coli MG1655
Bacillus subtilis = tested on: Bacillus subtilis
[2] = tested on: Enterococcus faecalis ATCC 29212
[3] = tested on: Klebsiella pneumoniae ATCC 13883
[4] = tested on: Pseudomonas aeruginosa ATCC 27853
[5] = tested on: Salmonella enterica subsp. enterica serovar Typhimurium ATCC 14028
[6] = tested on: Staphylococcus aureus ATCC 25923
[7] = tested on: Streptococcus pyogenes ATCC 19615
[8] = tested on: Bacillus subtilis ATCC 6633
[9] = tested on: Escherichia coli ATCC 25922
[10] = tested on: Klebsiella pneumoniae ATCC 10031
[11] = tested on: Micrococcus luteus ATCC 10240
[12] = tested on: Shigella dysenteriae ATCC 9752
[13] = tested on: Staphylococcus aureus ATCC 6538P
[14] = tested on: Staphylococcus aureus TK784
[15] = tested on: Staphylococcus epidermidis ATCC 12228
[16] = tested on: Escherichia coli ATCC 11219
[17] = tested on: Pseudomonas aeruginosa ATCC 13388
[18] = tested on: Staphylococcus aureus ATCC 6538
Candida albicans MDM8 = tested on: Candida albicans MDM8
Escherichia coli SBS 363 = tested on: Escherichia coli SBS 363
Bacillus subtilis 168 = tested on: Bacillus subtilis 168
Escherichia coli K-12 = tested on: Escherichia coli K-12
[19] = tested on: Pseudomonas aeruginosa PAO1
[20] = tested on: Staphylococcus aureus USA 300
[21] = tested on: Pseudomonas aeruginosa ATCC BAA-427

MIC (Escherichia coli): 9 µM (≈ 5.88 µg/mL)
MIC (Listeria innocua): 1 µM (≈ 0.654 µg/mL)
MIC (Micrococcus luteus A270): 9 µM (≈ 5.88 µg/mL)
MIC (Micrococcus luteus): 9 µM (≈ 5.88 µg/mL)
MIC [1]: 5 µM and 4.6 µM
MIC (Staphylococcus aureus): 1 µM (≈ 0.654 µg/mL)
SMILES: C[C@@H](O)[C@H](N)C(=O)N[C@@H](CO)C(=O)N[C@@H](CCCCN)C(=O)N[C@@H](Cc1ccc(O)cc1)C(=O)N[C@@H](CCCN=C(N)N)C(=O)O [TSKYR]

MIC (Bacillus subtilis 168 HT): ≥ 101 µM
MIC (Escherichia coli MG1655): ≥ 101 µM
SMILES: CC(C)C[C@H](NC(=O)[C@H](CC(C)C)NC(=O)[C@H](CCCN=C(N)N)NC(=O)[C@H](CCCN=C(N)N)NC(=O)[C@H](CCCCN)NC(=O)[C@H](C)NC(=O)[C@H](CCCCN)NC(=O)[C@@H](N)CCCCN)C(=O)N[C@@H](CCCCN)C(=O)N[C@@H](CCCCN)C(=O)O [KKAKRRLLKK]

MIC (Bacillus subtilis): ≥ 100 µM
MIC [2]: > 100 µM
MIC (Escherichia coli): 30 µM (≈ 65.1 µg/mL)
MIC [3]: ≥ 100 µM
MIC [4]: > 100 µM
MIC [5]: > 100 µM
MIC [6]: > 100 µM
MIC [7]: ≥ 100 µM
SMILES: CC(C)C[C@H](NC(=O)[C@H](CO)NC(=O)[C@H](CCCN=C(N)N)NC(=O)[C@H](CCCCN)NC(=O)[C@@H](NC(=O)[C@@H](NC(=O)CNC(=O)[C@H](CCCN=C(N)N)NC(=O)[C@H](Cc1cnc[nH]1)NC(=O)[C@H](Cc1c[nH]c2ccccc12)NC(=O)[C@H](Cc1ccccc1)NC(=O)[C@H](Cc1cnc[nH]1)NC(=O)[C@H](Cc1ccc(O)cc1)NC(=O)[C@@H](N)Cc1ccc(O)cc1)C(C)C)[C@@H](C)O)C(=O)N[C@@H](CO)C(=O)N1CCC[C@H]1C(=O)N[C@@H](Cc1cnc[nH]1)C(=O)O [YYHFWHRGVTKRSLSPH]

MIC [8]: 1.42 µM (≈ 2 µg/mL)
MIC [9]: 2.84 µM (≈ 4 µg/mL)
MIC [10]: 1.42 µM (≈ 2 µg/mL)
MIC [11]: 2.84 µM (≈ 4 µg/mL)
MIC [4]: 5.67 µM (≈ 7.99 µg/mL)
MIC [5]: 1.42 µM (≈ 2 µg/mL)
MIC [12]: 1.42 µM (≈ 2 µg/mL)
MIC [13]: 1.42 µM (≈ 2 µg/mL)
MIC [14]: 5.67 µM (≈ 7.99 µg/mL)
MIC [15]: 1.42 µM (≈ 2 µg/mL)
SMILES: CC(C)C[C@H](NC(=O)[C@H](CC(C)C)NC(=O)[C@H](CCCCN)NC(=O)[C@H](CCCCN)NC(=O)[C@H](CC(C)C)NC(=O)[C@H](CC(C)C)NC(=O)[C@H](CCCCN)NC(=O)[C@H](CCCCN)NC(=O)[C@H](CC(C)C)NC(=O)[C@@H](N)Cc1c[nH]c2ccccc12)C(=O)N[C@@H](CCCCN)C(N)=O [WLKKLLKKLLK]

MIC (Bacillus subtilis): ≥ 50 µM
MIC [2]: 100 µM (≈ 145 µg/mL)
MIC (Escherichia coli): 50 µM (≈ 72.5 µg/mL)
MIC [3]: ≥ 200 µM
MIC [4]: 100 µM (≈ 145 µg/mL)
MIC [5]: > 200 µM
MIC [6]: 50 µM (≈ 72.5 µg/mL)
MIC [7]: ≥ 50 µM
SMILES: CC(C)C[C@H](NC(=O)[C@H](CC(C)C)NC(=O)[C@H](CCCCN)NC(=O)[C@H](CC(C)C)NC(=O)[C@H](CCCCN)NC(=O)[C@H](CC(C)C)NC(=O)[C@H](CCCCN)NC(=O)[C@H](CC(C)C)NC(=O)[C@H](CC(C)C)NC(=O)[C@H](CC(C)C)NC(=O)[C@@H](N)CCCCN)C(=O)N[C@@H](CCCCN)C(N)=O [KLLLKLKLKLLK]

MIC (Escherichia coli): 9 µM (≈ 14.3 µg/mL)
MIC (Listeria innocua): 1 µM (≈ 1.59 µg/mL)
MIC (Micrococcus luteus A270): 5 µM (≈ 7.93 µg/mL)
MIC [1]: 5 µM (≈ 7.93 µg/mL)
SMILES: CC(C)C[C@H](N)C(=O)N[C@@H](CO)C(=O)N[C@@H](Cc1ccccc1)C(=O)N1CCC[C@H]1C(=O)N[C@H](C(=O)N[C@H](C(=O)N[C@@H](CCCCN)C(=O)N[C@H](C(=O)N[C@@H](Cc1ccc(O)cc1)C(=O)N[C@@H](Cc1ccccc1)C(=O)N1CCC[C@H]1C(=O)N[C@@H](Cc1cnc[nH]1)C(=O)N[C@@H](Cc1ccccc1)C(=O)O)[C@@H](C)O)[C@@H](C)O)[C@@H](C)O [LSFPTTKTYFPHF]

MIC [16]: ≥ 50 µM
MIC [10]: 30 µM (≈ 39 µg/mL)
MIC [17]: 30 µM (≈ 39 µg/mL)
MIC [5]: 10 µM (≈ 13 µg/mL)
MIC [18]: 10 µM (≈ 13 µg/mL)
SMILES: CC[C@H](C)[C@H](NC(=O)CN)C(=O)N[C@@H](Cc1cnc[nH]1)C(=O)N[C@@H](CC(=O)O)C(=O)N[C@H](C(=O)N[C@@H](CC(C)C)C(=O)N[C@@H](CCCCN)C(=O)N[C@@H](Cc1ccc(O)cc1)C(=O)NCC(=O)N[C@@H](CCCCN)C(=O)N[C@@H](C)C(=O)N[C@@H](CO)C(N)=O)[C@@H](C)CC [GIHDILKYGKAS]

MIC (Bacillus subtilis 168 HT): ≥ 45 µM
MIC (Escherichia coli MG1655): ≥ 90 µM
SMILES: CC[C@H](C)[C@H](NC(=O)[C@@H](NC(=O)[C@H](CCCCN)NC(=O)[C@H](CCCCN)NC(=O)[C@H](Cc1ccccc1)NC(=O)[C@@H](N)CCCCN)C(C)C)C(=O)N[C@@H](Cc1c[nH]c2ccccc12)C(=O)N[C@@H](CCCCN)C(=O)N[C@@H](CO)C(=O)N[C@@H](Cc1ccccc1)C(=O)N[C@@H](CC(C)C)C(=O)O [KFKKVIWKSFL]

MIC (Bacillus subtilis 168 HT): ≥ 92 µM
MIC (Escherichia coli MG1655): ≥ 92 µM
SMILES: CC[C@H](C)[C@H](NC(=O)CNC(=O)[C@@H](NC(=O)[C@H](CCCCN)NC(=O)[C@@H](NC(=O)CNC(=O)[C@H](CC(C)C)NC(=O)[C@H](Cc1c[nH]c2ccccc12)NC(=O)[C@H](CCCN=C(N)N)NC(=O)[C@@H](N)CC(C)C)[C@@H](C)O)C(C)C)C(=O)N[C@@H](CC(C)C)C(=O)N[C@@H](CCCCN)C(=O)O [LRWLGTKVGILK]

MIC (Candida albicans MDM8): 0.78 µM (≈ 1.03 µg/mL)
MIC (Escherichia coli SBS 363): 1.56 µM (≈ 2.07 µg/mL)
MIC (Micrococcus luteus A270): 0.5 µM (≈ 0.662 µg/mL)
SMILES: CC[C@H](C)[C@H](NC(=O)[C@H](CC(C)C)NC(=O)[C@H](CO)NC(=O)[C@H](CC(C)C)NC(=O)[C@H](CC(C)C)NC(=O)[C@@H](N)CCCN=C(N)N)C(=O)N[C@@H](CCCN=C(N)N)C(=O)N[C@@H](CCCCN)C(=O)N[C@@H](CC(C)C)C(=O)N[C@H](C(=O)N[C@H](C(N)=O)[C@@H](C)O)[C@@H](C)CC [RLLSLIRKLIT]

MIC (Bacillus subtilis 168): ≥ 100 µM
MIC (Escherichia coli K-12): ≥ 100 µM
MIC [19]: > 100 µM
MIC [20]: ≥ 100 µM
SMILES: CC(C)[C@H](NC(=O)[C@@H](NC(=O)[C@H](CCCCN)NC(=O)CNC(=O)[C@@H](NC(=O)[C@@H](NC(=O)[C@H](CO)NC(=O)[C@@H](NC(=O)[C@@H](NC(=O)[C@@H]1CCCN1C(=O)[C@@H](NC(=O)[C@@H](NC(=O)CN)C(C)C)C(C)C)C(C)C)C(C)C)C(C)C)C(C)C)C(C)C)C(N)=O [GVVPVVSVVGKVV]

MIC [8]: ≥ 100 µM
MIC [9]: > 100 µM
MIC [21]: ≥ 100 µM
MIC [6]: > 100 µM
SMILES: CC(C)C[C@H](NC(=O)[C@H](CC(=O)O)NC(=O)[C@H](CC(C)C)NC(=O)[C@H](CCCCN)NC(=O)[C@H](CC(C)C)NC(=O)[C@H](CC(=O)O)NC(=O)[C@H](CC(C)C)NC(=O)[C@H](CCCCN)NC(=O)[C@H](CC(C)C)NC(=O)[C@H](CC(=O)O)NC(=O)[C@H](CC(C)C)NC(=O)[C@@H](N)CCCCN)C(=O)O [KLDLKLDLKLDL]

MIC [16]: 10 µM (≈ 13.6 µg/mL)
MIC [10]: 20 µM (≈ 27.2 µg/mL)
MIC [17]: 20 µM (≈ 27.2 µg/mL)
MIC [5]: 20 µM (≈ 27.2 µg/mL)
MIC [18]: 30 µM (≈ 40.7 µg/mL)
SMILES: CC[C@H](C)[C@H](NC(=O)CN)C(=O)N[C@@H](Cc1cnc[nH]1)C(=O)N[C@@H](CC(=O)O)C(=O)N[C@H](C(=O)N[C@@H](CC(C)C)C(=O)N[C@@H](CCCCN)C(=O)N[C@@H](Cc1ccc(O)cc1)C(=O)NCC(=O)N[C@@H](CCCCN)C(=O)N[C@@H](CCCCN)C(=O)N[C@@H](CO)C(N)=O)[C@@H](C)CC [GIHDILKYGKKS]
